Results taken from patent publication US20130079402A1, “Use of at Least One Dialkyl Thiosulfonate or Thiosulfinate for Reducing the Number of Apicomplexa in an Animal” (Pancosma S.A., priority 2010, published 2013).
Like-named read-outs stand apart in the source and are kept apart here.

System: sporozoites of Eimeria tenella
Assay: Viability of Eimeria tenella sporozoites after 24 hours incubation with test compound (trypan blue exclusion)
Assay type: cell-based
Conditions: for inhibition at 100 ppm: Eimeria tenella, read-out: percentage inhibition (inhibitory or destructive effect on the sporozoites); for percentage inhibition (effectiveness): concentration of 10 ppm
Experimental: The antiparasitic properties of the following compounds were tested: • a capsicum oleoresin (Capsicum frutescens pigment) containing 6% by weight of a mixture of capsaicin and dihydrocapsaicin; • carvacrol; • cinnamaldehyde; • curcumin; • anethole; • PTS (according to the invention); • PTSO (according to the invention); and • an extract (according to the invention) called “Garlicon 40” containing […] of organosulfur compounds characteristic of garlic/onion, 6.7% by weight of PTS and 34.3% by weight of PTSO.
A first series of samples consisting of an aqueous solution containing 100 ppm of the abovementioned test compounds, and a second series of samples containing only 10 ppm of these compounds, were prepared.
Next, in order to be able to test the effect of the abovementioned compounds on Eimeria, the following was carried out. Freshly sporulated oocysts were obtained from Eimeria tenella and were stored at 4° C. in a 2.5% (weight/volume) potassium dichromate solution until use.
The oocysts were then sterilized with bleach before isolating sporozoites. The walls of the oocysts were mechanically destroyed for 5 to 7 seconds using a ball mill having balls of 0.5 mm.
The product obtained was then incubated for 45 minutes at 41° C. in a PBS buffer solution containing 0.014 mol/l of taurodeoxycholic acid and 0.25% by weight of trypsin in order to release the sporozoites.
The fluids released by the excystation were filtered and the sporozoites collected were washed three times with RPMI-1640 medium with stirring at 2100 revolutions per minute for 10 minutes at 4° C.
Solutions of 10^6 sporozoites per milliliter were then prepared, and were left to incubate with the same volume of sample of test compound for 24 hours.
The viability of the sporozoites was then measured according to the trypan blue exclusion method.
The results can be seen on the appended single figure, in which the numbers located above each column indicate the percentage inhibition by the corresponding compound and the numbers which follow the name of the compound indicate its concentration.
A measurement was also carried out with a control solution (free of test compound) called “Control” on the figure.

[1] = concentration of 100 ppm, 24 hours incubation

| Compound | percentage inhibition (effectiveness) (24 hours incubation) [%] | inhibition at 100 ppm [1] [%] | also measured |
| --- | --- | --- | --- |
| Cc1ccc(C(C)C)cc1O [carvacrol] |  |  | inhibition at 100 ppm (24 h): ≥ 74% |
| CCCS[S+]([O-])CCC (stereo not drawn) [PTS, di(n-propyl) thiosulfinate] | 87 |  |  |
| O=CC=Cc1ccccc1 [cinnamaldehyde] |  | ≥ 74 |  |
| COc1cc(/C=C/C(=O)CC(=O)/C=C/c2ccc(O)c(OC)c2)ccc1O [curcumin] |  | ≥ 74 |  |
| CCCSS(=O)(=O)CCC [PTSO, di(n-propyl) thiosulfonate] | 61 |  | effectiveness at 10 ppm compared with 100 ppm (10 ppm versus 100 ppm): higher effectiveness at 10 ppm than at 100 ppm |
